Laboratory results taken from article PMC9481563, “Structural insights into the pSer/pThr dependent regulation of the SHP2 tyrosine phosphatase in insulin and CD28 signaling” (Nature Communications, 2022).

Columns and labels:
[1] = biological target: T1, PTPRε first phosphatase domain, C335S (Homo sapiens, UniProt P23469, C335S); assay: biochemical; type: binding; settings: competitive FP titration vs CF-ppIRS1 100 nM, protein fixed, unlabelled peptide varied; n = 3 technical replicates
T1 construct: PTPRε (P23469 first domain: 107–399); MBP; made in house; host or cells: E. coli BL21 (DE3)
T1 sequence (P23469 107-399 C335S): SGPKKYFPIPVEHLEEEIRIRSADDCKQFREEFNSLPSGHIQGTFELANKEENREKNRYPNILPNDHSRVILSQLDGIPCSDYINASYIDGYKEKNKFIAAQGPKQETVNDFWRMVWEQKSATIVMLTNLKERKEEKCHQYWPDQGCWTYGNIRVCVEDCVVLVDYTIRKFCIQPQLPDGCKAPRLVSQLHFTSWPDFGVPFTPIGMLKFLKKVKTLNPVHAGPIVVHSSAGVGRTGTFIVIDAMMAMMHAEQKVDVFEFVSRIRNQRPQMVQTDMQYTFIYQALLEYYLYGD
Excerpt: The two SH2 domains of PI3KR1 (UniProt P27986; nSH2: 321−433 cSH2: 614–724) were cloned from HEK293T cDNA pool, and subsequently ligated into a modified pET vector encoding maltose binding protein (MBP) tag on the N-terminal and a hexa-His tag on the C-terminal end of the construct. Similarly, the catalytic, tyrosine phosphatase domains of PTPRε (P23469 first domain: 107–399) and PTP1B (P18031; 1–229) were cloned from a HEK293T cDNA pool, and inserted into a pBH4 vector encoding an N-terminal His6 tag (for the final binding experiments, an MBP-tagged version of PTPRε was employed). […] Wild-type C-terminal FLAG-tagged human IRS1 was cloned between HindIII-NotI sites of pcDNA3.1(+) vector (#V79020 Invitrogen, Waltham MA USA). Ser/Ala mutant IRS1 was generated by replacing the region of S616/S636/S666/S736 positions with a cassette carrying S616A/S636A/S666A/S736A mutations. All constructs were validated by complete Sanger sequencing before protein expression and purification. The oligonucleotide sequences used are shown on Supplementary table 4.
Fluorescence polarization was always measured in triplicates, on black Corning low volume round bottom 384-well plates (with 10 ul volumes), using a BioTek Cytatation 5 reader, with the green fluorescent protein (GFP) cube filter set (ex: 485/20, em: 528/20, gain: 50, height: 7.5). Fluorescence polarization data was evaluated on Origin 2018. The dissociation constants (Kd) were determined by using the appropriate quadratic and cubic equations inserted as a user-defined function and applying nonlinear fit until convergence. The fitting formulae are shown at Supplementary note 1. Kd ratio distributions for Fig. 6 were calculated using a Monte-Carlo approach (Supplementary note 2).
(§1) Supplementary note 1. Curve fitting of fluorescence polarization (FP) measurements.
(§2) To evaluate polarization values from direct and competitive titrations, we used the following fitting formulae in Origin 2018, as detailed below.
(§3) Direct titration curves were fitted according to the following formula: […]
(§4) Where Imin is the minimal anisotropy, Imax is the (asymptotically estimated) maximal intensity. K0 is the starting concentration of the protein, while T0 is the (fixed) concentration of the labelled peptide and Kd is the dissociation constant.
(§5) Competitive titration curves were fitted with a different formula (In addition to those defined above, constants KdT KdB B0 T0 and D0 here refer to the Kd derived from the direct titration, the unknown Kd of the analyte, the labelled peptide concentration, the competitor peptide concentration as well as the protein concentration, respectively).
(§6) The ± sign refers to two different scenarios, depending on the sign of discriminant (KdT > KdB or […]). For unknown analytes, the choice of sign is not arbitrary, as the fitting will not converge unless the appropriate formula is chosen: […]
(§7) Where A, B and C correspond to the following expressions: […]

[2] = biological target: T2, inactive SHP2 catalytic domain Flapmut (H426F) (Homo sapiens, UniProt Q06124, C459S/H426F); assay: Fluorescence polarization titrations, SHP2 Flapmut; type: binding; settings: competitive FP titration vs CF-ppIRS1 100 nM, protein fixed; n = 3 technical replicates
T2 construct: SHP2 H425F (Flapmut); 219-528 + C459S; His6 (N); made in house; host or cells: E. coli BL21 (DE3)
T2 sequence (Q06124 219-528 H426F/C459S): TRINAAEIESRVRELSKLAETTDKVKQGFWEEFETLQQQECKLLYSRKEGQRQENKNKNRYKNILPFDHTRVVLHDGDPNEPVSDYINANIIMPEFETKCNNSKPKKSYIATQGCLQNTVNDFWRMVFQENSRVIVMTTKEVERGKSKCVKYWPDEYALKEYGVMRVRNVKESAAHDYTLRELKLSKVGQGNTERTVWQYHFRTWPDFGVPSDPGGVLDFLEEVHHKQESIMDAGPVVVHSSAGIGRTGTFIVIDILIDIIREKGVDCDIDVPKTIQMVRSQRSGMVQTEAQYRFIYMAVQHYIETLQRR
Excerpt: The two SH2 domains of PI3KR1 (UniProt P27986; nSH2: 321−433 cSH2: 614–724) were cloned from HEK293T cDNA pool, and subsequently ligated into a modified pET vector encoding maltose binding protein (MBP) tag on the N-terminal and a hexa-His tag on the C-terminal end of the construct. Similarly, the catalytic, tyrosine phosphatase domains of PTPRε (P23469 first domain: 107–399) and PTP1B (P18031; 1–229) were cloned from a HEK293T cDNA pool, and inserted into a pBH4 vector encoding an N-terminal His6 tag (for the final binding experiments, an MBP-tagged version of PTPRε was employed). […] Surface mutants of SHP2 were constructed from the SHP2-C459S plasmid, using the QuickChange protocol. The D425A and H426A catalytic site mutants and all enzymatically active surface mutants were generated similarly, but from the plasmid encoding the wild-type catalytic domain of SHP2. Wild-type C-terminal FLAG-tagged human IRS1 was cloned between HindIII-NotI sites of pcDNA3.1(+) vector (#V79020 Invitrogen, Waltham MA USA). Ser/Ala mutant IRS1 was generated by replacing the region of S616/S636/S666/S736 positions with a cassette carrying S616A/S636A/S666A/S736A mutations. All constructs were validated by complete Sanger sequencing before protein expression and purification. The oligonucleotide sequences used are shown on Supplementary table 4.
Fluorescence polarization (FP) assays were performed as follows: In direct titration experiments, protein concentration was varied in an 1/2 or 2/3 dilution series (90 µl protein+ 45 µl mix), while concentration of the reporter peptide (CF-ppIRS1) was kept constant at 100 nM. In competitive titrations, the labelled CF-ppIRS1 peptide and protein were both fixed (at 50–80% saturation) and the unlabelled competitor peptide concentration was varied. Fluorescence polarization was always measured in triplicates, on black Corning low volume round bottom 384-well plates (with 10 ul volumes), using a BioTek Cytatation 5 reader, with the green fluorescent protein (GFP) cube filter set (ex: 485/20, em: 528/20, gain: 50, height: 7.5). Fluorescence polarization data was evaluated on Origin 2018. The dissociation constants (Kd) were determined by using the appropriate quadratic and cubic equations inserted as a user-defined function and applying nonlinear fit until convergence. The fitting formulae are shown at Supplementary note 1. Kd ratio distributions for Fig. 6 were calculated using a Monte-Carlo approach (Supplementary note 2).
as §1, §2, §3, §4, §5, §6, §7

Compound: CSCC[C@H](NC(=O)[C@H](Cc1ccc(OP(=O)(O)O)cc1)NC(=O)[C@H](CC(=O)O)NC(=O)[C@H](CO)NC(=O)[C@H](Cc1c[nH]cn1)NC(=O)[C@H](CC(C)C)NC(=O)[C@H](CC(C)C)NC(=O)[C@H](CCCNC(=N)N)NC(=O)[C@H](CO)NC(=O)[C@@H](N)CCCNC(=N)N)C(=O)N[C@@H](CC(N)=O)C(=O)N[C@@H](CCSC)C(=O)N[C@H](C(=O)N1CCC[C@H]1C(=O)N[C@@H](CCCNC(=N)N)C(=O)N[C@@H](CCCNC(=N)N)C(=O)O)[C@@H](C)O [p0CD28]
- Kd [1]: 1.18 ± 0.1 µM
- Kd [2]: 63.7 ± 3.1 µM

Compound: CSCC[C@H](NC(=O)[C@@H]1CCCN1C(=O)[C@H](CCSC)NC(=O)[C@H](Cc1ccc(OP(=O)(O)O)cc1)NC(=O)[C@H](CC(=O)O)NC(=O)CNC(=O)[C@H](CO)NC(=O)CNC(=O)[C@H](CCCCN)NC(=O)[C@H](CCCNC(=N)N)NC(=O)CN)C(=O)N[C@@H](CO)C(=O)N1CCC[C@H]1C(=O)N[C@@H](CCCCN)C(=O)N[C@@H](CO)C(=O)O [p0IRS1]
- Kd [1]: 36 ± 2.44 µM
- Kd [2]: 172 ± 4.89 µM

Compound: CC[C@H](C)[C@H](NC(=O)[C@H](CC(N)=O)NC(=O)[C@@H](NC(=O)[C@H](Cc1ccc(OP(=O)(O)O)cc1)NC(=O)[C@H](CCC(=O)O)NC(=O)CNC(=O)[C@@H]1CCCN1C(=O)[C@H](CO)NC(=O)[C@H](CCCCN)NC(=O)[C@@H]1CCCN1C(=O)[C@@H](N)CCC(=O)O)C(C)C)C(=O)N[C@@H](CCC(=O)O)C(=O)N[C@@H](Cc1ccccc1)C(=O)O [p0SRev-IRS1]
- Kd [2]: 6.05 ± 0.29 µM

Compound: CSCC[C@H](NC(=O)[C@H](Cc1ccc(OP(=O)(O)O)cc1)NC(=O)[C@H](CC(=O)O)NC(=O)[C@H](CO)NC(=O)[C@H](Cc1c[nH]cn1)NC(=O)[C@H](CC(C)C)NC(=O)[C@H](CC(C)C)NC(=O)[C@H](CCCNC(=N)N)NC(=O)[C@H](CO)NC(=O)[C@@H](N)CCCNC(=N)N)C(=O)N[C@@H](CC(N)=O)C(=O)N[C@@H](CCSC)C(=O)N[C@H](C(=O)N1CCC[C@H]1C(=O)N[C@@H](CCCNC(=N)N)C(=O)N[C@@H](CCCNC(=N)N)C(=O)O)[C@@H](C)OP(=O)(O)O [ppCD28]
- Kd [1]: 1.24 ± 0.08 µM
- Kd [2]: 9.96 ± 0.47 µM

Compound: CSCC[C@H](NC(=O)[C@@H]1CCCN1C(=O)[C@H](CCSC)NC(=O)[C@H](Cc1ccc(OP(=O)(O)O)cc1)NC(=O)[C@H](CC(=O)O)NC(=O)CNC(=O)[C@H](CO)NC(=O)CNC(=O)[C@H](CCCCN)NC(=O)[C@H](CCCNC(=N)N)NC(=O)CN)C(=O)N[C@@H](COP(=O)(O)O)C(=O)N1CCC[C@H]1C(=O)N[C@@H](CCCCN)C(=O)N[C@@H](CO)C(=O)O [ppIRS1]
- Kd [1]: 16.5 ± 1.7 µM
- Kd [2]: 3.89 ± 0.19 µM

Compound: CC[C@H](C)[C@H](NC(=O)[C@H](CC(N)=O)NC(=O)[C@@H](NC(=O)[C@H](Cc1ccc(OP(=O)(O)O)cc1)NC(=O)[C@H](CCC(=O)O)NC(=O)CNC(=O)[C@@H]1CCCN1C(=O)[C@H](COP(=O)(O)O)NC(=O)[C@H](CCCCN)NC(=O)[C@@H]1CCCN1C(=O)[C@@H](N)CCC(=O)O)C(C)C)C(=O)N[C@@H](CCC(=O)O)C(=O)N[C@@H](Cc1ccccc1)C(=O)O [ppSRev-IRS1]
- Kd [2]: 0.54 ± 0.03 µM
